Columns and labels:
[1] = Cytotoxicity against rat PC-12 cells assessed as cell viability at 100 uM measured after 24 hrs by CCK-8 assay (reference value: 100%); assay type: toxicity, cell-based; conditions: read-out: Activity
Alpha-synuclein = Alpha-synuclein (Homo sapiens, UniProt P37840); assay: Inhibition of alpha-Synuclein (unknown origin) aggregation assessed as aggregation inhibition ratio measured after 72 hrs by Thioflavin T based fluorescence assay

Row | SMILES | viability at 24 h, 100 µM [1] | IC50 (Alpha-synuclein)
1 | O=C(/C=C/c1cc(O)c(O)c(O)c1)Nc1ccc2oc(=O)ccc2c1 | > 90% | –
2 | O=C(Nc1ccc2oc(=O)ccc2c1)c1cc(O)ccc1O | > 80% | –
3 | Oc1cc(O)c2c(c1)O[C@H](c1cc(O)c(O)c(O)c1)[C@H](O)C2 [EPIGALLOCATECHIN] | – | 2.58 µM
4 | O=C(/C=C/c1cc(O)ccc1O)Nc1ccc2oc(=O)c(NC(=O)/C=C/c3cc(O)ccc3O)cc2c1 | > 90% | –
5 | O=C(/C=C/c1cc(O)ccc1O)Nc1ccc2oc(=O)ccc2c1 | > 90% | –
